From patent US9650380B2, “Difluoromethylene compound” (SATO PHARMACEUTICAL CO., LTD., priority 2012, dated 2017)

Target: T1, human URAT1 (Homo sapiens, UniProt Q96S37)
T1 construct: Human URAT1 full-length cDNA was introduced to an expression vector pcDNA5/FRT/V5-His TOPO; expressed in transfected cells
T1 sequence (Q96S37 1-553): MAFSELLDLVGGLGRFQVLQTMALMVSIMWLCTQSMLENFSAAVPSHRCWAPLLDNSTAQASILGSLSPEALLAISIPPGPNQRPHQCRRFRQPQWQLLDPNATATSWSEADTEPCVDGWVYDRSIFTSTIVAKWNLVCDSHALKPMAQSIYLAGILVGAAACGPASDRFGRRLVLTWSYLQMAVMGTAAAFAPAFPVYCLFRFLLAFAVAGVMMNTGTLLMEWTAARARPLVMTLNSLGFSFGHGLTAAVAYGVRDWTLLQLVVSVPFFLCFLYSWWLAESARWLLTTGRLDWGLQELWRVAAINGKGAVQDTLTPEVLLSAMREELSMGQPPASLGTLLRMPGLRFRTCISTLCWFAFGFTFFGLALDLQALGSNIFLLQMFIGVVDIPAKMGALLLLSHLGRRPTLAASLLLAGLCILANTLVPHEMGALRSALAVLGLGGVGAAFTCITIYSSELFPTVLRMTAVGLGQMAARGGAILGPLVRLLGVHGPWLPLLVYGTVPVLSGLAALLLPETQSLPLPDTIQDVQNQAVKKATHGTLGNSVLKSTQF
Test: Test for uric acid transport inhibition using human URAT1 expression cells
Assay type: cell-based
Conditions: human URAT1 stable expression CHO cells; 14C-labeled uric acid 38 μM final; incorporation 5 minutes at room temperature; 100% window defined with benzbromarone 100 μM; read-out: URAT1 inhibitory activity (IC50)
Procedure: In this Example, it was evaluated whether the Example compound and the Reference example compound mentioned below has the URAT1 inhibitory activity.
Human URAT1 full-length cDNA was introduced to an expression vector pcDNA5/FRT/V5-His TOPO (registered trademark) (Invitrogen Corporation). The obtained expression plasmid was introduced to Chinese hamster ovary cell (hereinafter referred to as the CHO cell) by the liposome method using Lipofectamine LTX (Invitrogen) and cultured in a selection medium including hygromycin, whereby to prepare human URAT1 stable expression cell.
The human URAT1 expression CHO cell were cultured using D-MEM/F-12 (1:1) mixed medium including 10% bovine fatal serum and hygromycin at 37° C. in the presence of 5% CO2. The cells were seeded onto a 96-well plate (Corning Incorporated) at 0.8×10^5 cells/well, and after 24 hours, the test for uric acid transport inhibition below was performed.
The medium was removed by aspiration, and then the cells were washed once with an assay buffer including 125 mM of sodium gluconate, 4.8 mM of potassium gluconate, 1.2 mM of potassium dihydrogen phosphate, 1.2 mM of magnesium sulfate, 1.3 mM of calcium gluconate and 5.6 mM of glucose, 50 μL assay buffer including the test compound in various concentrations was added, and further 50 μL assay buffer including a radioactive ligand (uric acid labeled with ^14C; 38 μM final concentration) was added, and incorporation reaction was performed at room temperature for 5 minutes. Immediately after the completion of the reaction, the reaction mixture was washed twice with 100 μL ice-cold assay buffer, and 100 μL of 0.1N sodium hydroxide was added. The reaction mixture was stirred to lyse the cells, and 4 mL of Hionic-Fluor (Packard BioScience CO.) was added, and then the radioactivity was measured with a liquid scintillation counter (Beckman Coulter, Inc. and Packard BioScience CO).
The radioactivitiy when each concentration of the test compound was added (uric acid incorporation activity, %) was calculated in which the difference of the radioactivity when the test compound was not added (DMSO added) and the radioactivity when a positive control compound, benzbromarone (a known URAT1 inhibitor) was added in 100 μM, was taken as 100%, and the concentration of the test compound when the uric acid incorporation activity was inhibited to 50% (IC50) was obtained.

SMILES	IC50
Cc1cccc(C(N)=O)c1Cn1nc(C)c2ccc(C(F)(F)c3nnn[nH]3)nc21 [example 110, 2-{6-[difluoro(1H-tetrazol-5-yl)methyl]-3-methyl-1H-pyrazolo[3,4-b]pyridin-1-ylmethyl}-3-methylbenzamide]	44 nM
Cc1nn(Cc2c(C(N)=O)cccc2C2CC2)c2nc(C(F)(F)c3nnn[nH]3)ccc12 [example 116, 3-cyclopropyl-2-{6-[difluoro(1H-tetrazol-5-yl)methyl]-3-methyl-1H-pyrazolo[3,4-b]pyridin-1-ylmethyl}benzamide]	36 nM
Cc1cccc(C#N)c1Cn1nc(CO)c2ccc(C(F)(F)C(=O)O)cc21 [example 121, [1-(2-cyano-6-methylbenzyl)-3-hydroxymethyl-1H-indazol-6-yl]difluoroacetic acid]	268 nM
